Source: ChEMBL document CHEMBL1862790, “Optimisation of fenarimol series for the treatment of Chagas disease”
pIC50: −log10 of the molar value.

Columns and labels:
Trypanosoma cruzi [1] = assay: microbe, parasite or virus in culture; type: functional, organism-based, Tulahuen LacZ, Clone C4; details: Trypanosoma cruzi, Tulahuen LacZ, Clone C4
[2] = DNDI: Cytotoxicity against L-6 rat myoblasts from skeletal muscle cells; details: L6 rat skeletal muscle myoblast cells
Trypanosoma cruzi [3] = assay: microbe, parasite or virus in culture; type: functional, Tulahuen LacZ, Clone C4; details: Trypanosoma cruzi, Tulahuen LacZ, Clone C4

SMILES	pIC50 (Trypanosoma cruzi [1])	IC90 (Trypanosoma cruzi [3]) [µM]	pIC50 ([2]; IC50)	pIC50 [2]
O=C(C1CC1)N1CCC(NC(c2ccc(C(F)(F)F)cc2)c2cccnc2)CC1 (configuration not stated)	6.82	0.55	< 4.00	–
CS(=O)(=O)N1CCC(C(=O)NC(c2ccc(Cl)cc2)c2cccnc2)CC1 (configuration not stated)	5.22	> 10	< 4.00	–
O=C(Oc1ccccc1)N1CCC(NC(c2ccc(Cl)cc2)c2cccnc2)CC1 (configuration not stated)	7.70	0.044	–	4.22
CS(=O)(=O)NC1CCN(C(c2ccc(Cl)cc2)c2cncnc2)CC1 (configuration not stated)	6.20	> 1	< 4.00	–
CCN(CC)C(=O)NC1CCN(C(c2ccc(Cl)cc2)c2cccnc2)CC1 (configuration not stated)	6.92	0.73	< 4.00	–
CCN(CC)C(=O)NC1CCN(C(c2ccc(Cl)cc2)c2cncnc2)CC1 (configuration not stated)	6.96	0.86	< 4.00	–
Nc1ncc(C(O)(c2ccc(Cl)cc2)c2cccnc2)cn1 (configuration not stated)	6.54	0.91	< 4.00	–
CS(=O)(=O)NC1CCN(C(c2ccc(Cl)cc2)c2cccnc2)CC1 (configuration not stated)	7.00	0.64	< 4.00	–
O=C(NC(c1ccc(Cl)cc1)c1cccnc1)c1ccc(C(F)(F)F)cc1 (configuration not stated)	6.60	0.69	4.20	–
CCN(CC)C(=O)NC1CCN(C(c2ccc(OC(C)C)cc2)c2cccnc2)CC1 (configuration not stated)	7.06	0.28	< 4.00	–
CS(=O)(=O)N1CCC(NC(c2ccc(C(F)(F)F)cc2)c2cccnc2)CC1 (configuration not stated)	6.72	0.93	< 4.00	–
O=C(OCc1ccccc1)N1CCN(C(c2ccc(Cl)cc2)c2cncnc2)CC1 (configuration not stated)	6.82	0.3	4.28	–
O=C(NC1CCCC1)N1CCN(C(c2ccc(Cl)cc2)c2cncnc2)CC1 (configuration not stated)	6.64	0.62	< 4.00	–
O=C(c1cc(C(O)(c2ccc(Cl)cc2)c2cccnc2)ccc1Cl)N1CCOCC1 (configuration not stated)	6.92	0.47	< 4.00	–
O=C(NC(c1ccc(Cl)cc1)c1cccnc1)c1ccc(Cl)cc1 (configuration not stated)	6.35	0.9	4.24	–
O=C(Nc1ccccc1)NC1CCN(C(c2ccc(Cl)cc2)c2cncnc2)CC1 (configuration not stated)	7.00	> 1	4.26	–
CCNC(=O)N1CCN(C(c2cncnc2)c2ccc(Cl)cc2F)CC1 (configuration not stated)	6.54	0.77	< 4.00	–
CC(C)Oc1ccc(C(c2cccnc2)N2CCC(NS(C)(=O)=O)CC2)cc1 (configuration not stated)	6.96	0.32	< 4.00	–
O=C(NC1CC1)c1cccc(C(O)(c2ccc(Cl)cc2)c2cccnc2)c1 (configuration not stated)	6.74	0.33	4.14	–
O=C(NC1CCN(C(c2ccc(Cl)cc2)c2cncnc2)CC1)C1CC1 (configuration not stated)	6.32	> 1	< 4.00	–
CS(=O)(=O)N1CCC(C(O)(c2ccc(Cl)cc2)c2cccnc2)CC1 (configuration not stated)	6.70	0.55	< 4.00	–
CC(C)Oc1ccc(C(c2cccnc2)N2CCC(NC(=O)C3CC3)CC2)cc1 (configuration not stated)	6.42	0.86	< 4.00	–
O=C(c1ccccc1)N1CCC(NC(c2ccc(Cl)cc2)c2cccnc2)CC1 (configuration not stated)	7.08	0.19	< 4.00	–
O=C(NC1CCN(C(c2cncnc2)c2ccc(Cl)cc2F)CC1)C1CC1 (configuration not stated)	6.82	0.48	< 4.00	–
O=C(N1CCCCC1)N1CCN(C(c2ccc(Cl)cc2)c2cncnc2)CC1 (configuration not stated)	6.66	0.61	< 4.00	–
CC(C)Oc1ccc(C(O)(c2cccnc2)c2cccc(C(N)=O)c2)cc1 (configuration not stated)	7.04	0.33	4.16	–
CCNC(=O)NC1CCN(C(c2ccc(Cl)cc2)c2cccnc2)CC1 (configuration not stated)	7.01	0.3	< 4.00	–
O=C(C1CC1)N1CCC(NC(c2ccc(Cl)cc2)c2cccnc2)CC1 (configuration not stated)	6.74	0.3	< 4.00	–
CC(C)Oc1ccc(C(NC(=O)c2ccc(Cl)cc2)c2cccnc2)cc1 (configuration not stated)	6.82	0.33	4.07	–
CC(C)Oc1ccc(C(O)(c2cccnc2)c2cccc(C(N)=O)c2)cc1F (configuration not stated)	7.00	0.27	< 4.00	–

Continued, in another order:

pIC50 (Trypanosoma cruzi [1])	IC90 (Trypanosoma cruzi [3]) [µM]	SMILES	pIC50 ([2]; IC50)	pIC50 [2]
7.44	0.25	CCN(CC)C(=O)N1CCC(NC(c2ccc(C(F)(F)F)cc2)c2cccnc2)CC1 (configuration not stated)	4.04	–
7.49	0.15	OC(c1ccc(Cl)cc1)(c1cccnc1)c1cnc(OC(CF)CF)nc1 (configuration not stated)	< 4.00	–
8.06	0.065	CC(C)(C)CC(=O)NC1CCN(C(c2ccc(Cl)cc2)c2cccnc2)CC1 (configuration not stated)	< 4.00	–
8.22	0.03	O=C(Nc1ccc(Cl)cc1)NC1CCN(C(c2ccc(Cl)cc2)c2cccnc2)CC1 (configuration not stated)	4.68	–
7.08	0.77	O=C(c1ccccc1)N1CCC(NC(c2ccc(C(F)(F)F)cc2)c2cccnc2)CC1 (configuration not stated)	4.14	–
7.52	0.19	O=C(Nc1ccccc1)NC1CCN(C(c2cncnc2)c2ccc(Cl)cc2F)CC1 (configuration not stated)	4.25	–
7.77	0.1	O=S1(=O)CCCN1C1CCN(C(c2ccc(Cl)cc2)c2cccnc2)CC1 (configuration not stated)	< 4.00	–
7.52	0.1	O=C(NC1CCCCC1)N1CCC(NC(c2ccc(Cl)cc2)c2cccnc2)CC1 (configuration not stated)	< 4.00	–
7.62	0.076	CCOC(=O)N1CCN(C(c2cccnc2)c2ccc(Cl)cc2F)CC1 (configuration not stated)	4.22	–
7.12	0.38	O=C(Nc1ccccc1)N1CCC(NC(c2ccc(C(F)(F)F)cc2)c2cccnc2)CC1 (configuration not stated)	4.19	–
7.24	0.13	O=C(N1CCCCC1)N1CCC(NC(c2ccc(Cl)cc2)c2cccnc2)CC1 (configuration not stated)	< 4.00	–
7.60	0.08	CC(C)Oc1ccc(C(c2cccnc2)N2CCC(NC(=O)OC(C)(C)C)CC2)cc1 (configuration not stated)	4.25	–
7.22	0.26	CC(C)(C)OC(=O)NC1CCN(C(c2ccc(Cl)cc2)c2cncnc2)CC1 (configuration not stated)	< 4.00	–
7.74	0.086	CCOC(=O)NC1CCN(C(c2ccc(Cl)cc2)c2cccnc2)CC1 (configuration not stated)	< 4.00	–
7.55	0.088	O=C(OCc1ccccc1)N1CCN(C(c2cccnc2)c2ccc(Cl)cc2F)CC1 (configuration not stated)	4.22	–
7.30	0.25	CCN(CC)C(=O)NC1CCN(C(c2cncnc2)c2ccc(Cl)cc2F)CC1 (configuration not stated)	4.24	–
7.12	0.79	O=C(NC1CCN(C(c2ccc(Cl)cc2)c2cncnc2)CC1)c1ccccc1 (configuration not stated)	4.04	–
7.27	0.11	CC(C)(C)NC(=O)N1CCN(C(c2cncnc2)c2ccc(Cl)cc2F)CC1 (configuration not stated)	< 4.00	–
7.66	0.11	O=C(NC1CCN(C(c2cncnc2)c2ccc(Cl)cc2F)CC1)c1ccccc1 (configuration not stated)	4.08	–
7.15	0.3	NC(=O)c1cccc(C(O)(c2ccc(C(F)(F)F)cc2)c2cccnc2)c1 (configuration not stated)	< 4.00	–

pIC50 (Trypanosoma cruzi [1])	IC90 (Trypanosoma cruzi [3]) [µM]	SMILES	pIC50 ([2]; IC50)	pIC50 [2]
8.00	0.046	CC(C)(C)OC(=O)NC1CCN(C(c2cccnc2)c2ccc(Cl)cc2F)CC1 (configuration not stated)	4.26	–
7.70	0.075	O=C(Nc1ccccc1)NC1CCN(C(c2ccc(Cl)cc2)c2cccnc2)CC1 (configuration not stated)	4.12	–
7.22	0.22	O=C(NC1CCCC1)NC1CCN(C(c2ccc(Cl)cc2)c2cccnc2)CC1 (configuration not stated)	4.20	–
7.23	0.19	CC(C)(C)OC(=O)NC1CCN(C(c2cncnc2)c2ccc(Cl)cc2F)CC1 (configuration not stated)	< 4.00	–
8.00	0.43	O=C(NC1CCN(C(c2ccc(Cl)cc2)c2cccnc2)CC1)c1ccccc1 (configuration not stated)	4.19	–
7.49	0.11	CN(C)C(=O)NC1CCN(C(c2ccc(Cl)cc2)c2cccnc2)CC1 (configuration not stated)	< 4.00	–
7.21	0.18	CC(C)Oc1ccc(C(c2cccnc2)N2CCC(NC(=O)c3ccccc3)CC2)cc1 (configuration not stated)	< 4.00	–
7.11	0.58	O=C(NC1CCN(C(c2ccc(Cl)cc2)c2cccnc2)CC1)C1CC1 (configuration not stated)	4.08	–
8.07	0.046	CC(C)(C)OC(=O)NC1CCN(C(c2ccc(Cl)cc2)c2cccnc2)CC1 (configuration not stated)	4.27	–
7.82	0.059	CC(C)(C)OC(=O)N1CCC(NC(c2ccc(C(F)(F)F)cc2)c2cccnc2)CC1 (configuration not stated)	4.24	–
7.20	0.19	CC(C)(C)NC(=O)NC1CCN(C(c2ccc(Cl)cc2)c2cccnc2)CC1 (configuration not stated)	< 4.00	–
7.24	0.11	CC(C)Oc1ccc(C(c2cccnc2)N2CCC(NC(=O)Nc3ccccc3)CC2)cc1 (configuration not stated)	4.13	–
7.62	0.074	CC(C)(C)OC(=O)N1CCC(NC(c2ccc(Cl)cc2)c2cccnc2)CC1 (configuration not stated)	4.23	–
7.59	0.1	CC(C)(C)OC(=O)NC1CCN(C(c2ccc(C#N)cc2)c2cccnc2)CC1 (configuration not stated)	< 4.00	–
7.59	0.082	O=C(C1CC1)N1CCN(C(c2cccnc2)c2ccc(Cl)cc2F)CC1 (configuration not stated)	< 4.00	–
7.51	0.094	CC(C)(C)CC(=O)N1CCC(NC(c2ccc(Cl)cc2)c2cccnc2)CC1 (configuration not stated)	< 4.00	–
7.44	0.1	CCN(CC)C(=O)N1CCC(NC(c2ccc(Cl)cc2)c2cccnc2)CC1 (configuration not stated)	< 4.00	–
8.52	0.03	CC(C)c1ccc(NC(=O)NC2CCN(C(c3ccc(Cl)cc3)c3cccnc3)CC2)cc1 (configuration not stated)	< 4.00	–
7.59	0.11	O=C(NC1CCCCC1)NC1CCN(C(c2ccc(Cl)cc2)c2cccnc2)CC1 (configuration not stated)	4.07	–
